{"source": "patent US5728684A", "about": "“Determination of prodrugs metabolizable by the liver and therapeutic use thereof” (priority 1994, dated 1998)", "key": {"mice": {"test_system": "mice", "settings": "oral, at the dosage employed; cited from earlier work"}, "IPdR oxidase": {"test_system": "IPdR oxidase", "assay": "Conversion of IPdR to IUdR by cell extracts (rat tissues)", "format": "in vitro ADME", "procedure": "Rat hepatic tissue was washed with ice-cold 1.15% KCl and blotted dry. The tissue was then homogenized with a tissue homogenizer, in a volume of 1.15% KCl that was 3 times the tissue weight, to form a 25% (w/v) homogenate. The homogenate was then centrifuged at 10,000 g for 10 minutes at 4° C. The resulting supernatant was filtered through Miracloth (similar to cheese cloth) then dialyzed overnight against 50 mM Tris-HCl buffer pH 7.5 and stored at -80° C. before use. Rat hepatocytes were obtained by a perfusion technique then the cells were extracted with 10 mM phosphate buffer, pH 7.5, containing 1M KCl and dialyzed for 4 hours against 50 mM Tris-HCl buffer pH 7.5.\nFor the standard assay condition, the reaction mixture contained 50 mM Tris-HCl, pH 7.5, 1 mM EDTA, 180 μM of IPdR (or its analogs) and approximately 0.01 mg protein of 10,000 g supernatant of tissue homogenate in a final volume of 500 μl and the incubation was at 37° C. for 10 minutes unless specified otherwise. 300 μl of reaction mixture was removed at the end of incubation and mixed with 630 μl acetonitrile then agitated. The precipitated protein were removed by centrifugation and the supernatant was lyophilized to dryness. The samples were reconstituted to the original aliquot volume with the HPLC mobile phase buffer and analyzed on a Alltech RP-18 column. IPdR, IUdR and IU were detected at a UV absorption wavelength of 230 nm, and IPdR was also detected at a UV absorption wavelength of 335 nm. The mobile phase was 10% acetonitrile/90%mM ammonium acetate, pH 6.8 and the flow rate was 1 ml/minute. Standard curves of IPdR and IUdR were established from the integration value of known concentrations.\nDifferential fractionation centrifugation was used in an attempt to localize this IPdR conversion enzyme activity in the liver homogenate. The enzyme activity assay was performed on each fraction. […] Further purification was achieved by use of DEAE cellulose column chromatography, blue Sepharose column chromatography and glycerol gradient centrifugation in this order. This IPdR oxidase activity was purified 380 fold starting from the crude extracts of rat liver. The partially purified enzyme catalyzed IUdR synthesis at a rate of 3.8 μmoles per minute per milligram of protein at 37° C. under these conditions. The apparent molecular weight of this enzyme in both rats and humans as determined by centrifugation on a 20 to 40% glycerol gradient is approximately 280,000 dalton. Neither cofactor nor divalent cations requirement has been found for the rat liver enzyme or the human liver enzyme.\nTissue specificity of the conversion of IPdR"}}}
{"smiles": "O=c1ncc(I)cn1[C@H]1C[C@H](O)[C@@H](CO)O1", "note": "[IPdR, 1-(2-deoxy-β-D-ribofuranosyl)-5-(iodo)-2-pyrimidinone]", "values": [{"measurement": "toxicity to mice", "setting": "mice", "result": "not toxic"}, {"measurement": "IPdR oxidase specific activity of hepatocyte extracts", "setting": "IPdR oxidase; compared with whole liver extract", "result": "very similar specific activity"}, {"measurement": "Specific activity of the conversion of IPdR to IUdR", "setting": "IPdR oxidase; hepatocyte (rat), 3 samples", "result": "5-11 n mole/mg protein/min"}, {"measurement": "Specific activity of the conversion of IPdR to IUdR", "setting": "IPdR oxidase; intestine (rat), 3 samples, conversion not detected", "result": "< 0.02", "unit": "n mole/mg protein/min"}, {"measurement": "Specific activity of the conversion of IPdR to IUdR", "setting": "IPdR oxidase; kidney (rat), 3 samples", "result": "0.8-1.6 n mole/mg protein/min"}, {"measurement": "Specific activity of the conversion of IPdR to IUdR", "setting": "IPdR oxidase; liver (rat), 5 samples", "result": "5-15 n mole/mg protein/min"}, {"measurement": "Specific activity of the conversion of IPdR to IUdR", "setting": "IPdR oxidase; lung (rat), 3 samples, conversion not detected", "result": "< 0.02", "unit": "n mole/mg protein/min"}, {"measurement": "IPdR oxidase activity in extracts of kidney and spleen", "setting": "IPdR oxidase; rat kidney and spleen extracts, compared with liver", "result": "much less active"}, {"measurement": "IPdR oxidase activity in lung or intestine extracts", "setting": "IPdR oxidase; rat lung or intestine extracts", "result": "cannot be detected"}, {"measurement": "Specific activity of the conversion of IPdR to IUdR", "setting": "IPdR oxidase; spleen (rat), 3 samples", "result": "0.2-0.5 n mole/mg protein/min"}]}
